The values that follow come from US20260285855A1, “HETEROARYL DERIVATIVES AS DDRS INHIBITORS” (CHIESI FARMACEUTICI S.P.A., priority 2023, published 2026).

The structures appear in SMILES notation. pKi: −log10 of the molar value.

The target of one assay is T1, DDR2 (Homo sapiens, UniProt Q16832).
T1 construct: purchased Life Technologies
T1 sequence (Q16832 22-855): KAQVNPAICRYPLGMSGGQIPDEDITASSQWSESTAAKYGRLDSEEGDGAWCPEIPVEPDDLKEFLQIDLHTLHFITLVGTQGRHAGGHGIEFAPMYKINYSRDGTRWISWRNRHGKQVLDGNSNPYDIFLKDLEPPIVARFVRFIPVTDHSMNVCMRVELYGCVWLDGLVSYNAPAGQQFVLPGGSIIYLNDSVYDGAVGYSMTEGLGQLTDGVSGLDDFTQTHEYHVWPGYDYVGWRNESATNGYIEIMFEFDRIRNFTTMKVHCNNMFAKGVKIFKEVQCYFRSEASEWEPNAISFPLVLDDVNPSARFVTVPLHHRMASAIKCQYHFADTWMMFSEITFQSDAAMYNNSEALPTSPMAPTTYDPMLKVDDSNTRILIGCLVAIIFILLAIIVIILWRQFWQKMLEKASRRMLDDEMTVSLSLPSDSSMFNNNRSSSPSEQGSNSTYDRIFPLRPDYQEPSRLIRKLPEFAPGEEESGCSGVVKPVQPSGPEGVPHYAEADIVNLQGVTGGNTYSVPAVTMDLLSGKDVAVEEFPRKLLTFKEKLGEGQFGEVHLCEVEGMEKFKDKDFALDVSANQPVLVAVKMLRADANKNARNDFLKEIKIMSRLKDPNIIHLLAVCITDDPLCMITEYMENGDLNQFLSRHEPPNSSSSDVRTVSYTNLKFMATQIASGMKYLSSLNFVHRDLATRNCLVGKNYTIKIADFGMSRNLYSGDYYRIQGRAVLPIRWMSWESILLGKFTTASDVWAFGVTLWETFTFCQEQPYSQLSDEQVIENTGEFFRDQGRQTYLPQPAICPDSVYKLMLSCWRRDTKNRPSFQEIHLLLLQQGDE
Description: LanthaScreen Europium Kinase Binding assay, DDR2. The conditions noted are these: 5 nM DDR2, 10 nM Kinase Tracer 178, 1 h at rt; Ki from IC50 by Cheng-Prusoff; read-out: Ki DDR2. The procedure:
(§1) DDR1 and DDR2 binding assays were performed using Life Technologies LanthaScreen™ Europium Kinase Binding assay. […] IC50 values were determined in GraphPad Prism 7.0 software, using 4 parameter model: log (inhibitor) vs. response. IC50 values were converted in Ki using the Cheng-Prusoff equation (Ki-IC50/(1+ [Tracer]/Kd).
In general terms: In TR-FRET formats the signal depends on donor and acceptor labels being close together.

A further assay has as its target T2, DDR1 (Homo sapiens, UniProt Q08345).
T2 construct: purchased Carna Biosciences
Description: LanthaScreen Europium Kinase Binding assay, DDR1. The conditions noted are these: 5 nM DDR1, 20 nM Kinase Tracer 178, 1 h at rt; Ki from IC50 by Cheng-Prusoff; read-out: Ki DDR1. The procedure: as §1

T2 sequence (Q08345 19-913): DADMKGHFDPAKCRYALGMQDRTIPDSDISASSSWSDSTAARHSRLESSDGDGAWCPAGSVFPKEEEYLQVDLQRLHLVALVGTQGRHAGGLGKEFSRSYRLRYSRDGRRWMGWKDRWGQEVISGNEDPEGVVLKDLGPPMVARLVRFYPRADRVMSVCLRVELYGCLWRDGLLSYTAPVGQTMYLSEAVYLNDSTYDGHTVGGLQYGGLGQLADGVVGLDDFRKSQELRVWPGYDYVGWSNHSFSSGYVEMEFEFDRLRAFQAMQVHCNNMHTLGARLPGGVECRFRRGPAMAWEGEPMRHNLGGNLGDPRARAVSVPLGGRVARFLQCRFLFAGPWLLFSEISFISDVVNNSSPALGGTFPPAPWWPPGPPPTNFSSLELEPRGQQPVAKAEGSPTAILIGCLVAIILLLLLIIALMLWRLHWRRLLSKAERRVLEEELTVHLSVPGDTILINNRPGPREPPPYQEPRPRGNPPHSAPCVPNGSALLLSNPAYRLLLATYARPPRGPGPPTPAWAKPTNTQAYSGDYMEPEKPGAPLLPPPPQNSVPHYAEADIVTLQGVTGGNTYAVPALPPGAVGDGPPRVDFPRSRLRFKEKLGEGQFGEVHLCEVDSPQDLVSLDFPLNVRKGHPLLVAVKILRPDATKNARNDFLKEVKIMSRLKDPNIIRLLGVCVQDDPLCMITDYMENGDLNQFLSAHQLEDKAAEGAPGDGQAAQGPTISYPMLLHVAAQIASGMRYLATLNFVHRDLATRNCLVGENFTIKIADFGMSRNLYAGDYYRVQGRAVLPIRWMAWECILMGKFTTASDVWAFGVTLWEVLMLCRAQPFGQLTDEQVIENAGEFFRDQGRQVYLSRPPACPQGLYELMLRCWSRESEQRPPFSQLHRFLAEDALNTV

Consider `COc1ccc2c(C(=O)N3CC4(CC(N(C)C(=O)Nc5cncc(C(F)(F)F)c5)C4)C3)cnn2c1` [Example 250, 1-(2-(6-methoxypyrazolo[1,5-a]pyridine-3-carbonyl)-2-azaspiro[3.3]heptan-6-yl)-1-methyl-3-(5-(trifluoromethyl)pyridin-3-yl)urea], for which the pKi at DDR2 is 7.00 to 7.60; at DDR1, above 8.30.
On the same counts, the results for `COc1ccn2ncc(C(=O)N3CC4(CC(N(C)C(=O)Nc5cncc(C(F)(F)F)c5)C4)C3)c2c1` [Example 251, 1-(2-(5-methoxypyrazolo[1,5-a]pyridine-3-carbonyl)-2-azaspiro[3.3]heptan-6-yl)-1-methyl-3-(5-(trifluoromethyl)pyridin-3-yl)urea] are 7.60 to 8.30 and above 8.30.
On the same counts, the results for `CN(C(=O)Nc1cncc(C(F)(F)F)c1)C1CC2(C1)CN(C(=O)c1cnn3ccc(N4CCC(F)(F)C4)cc13)C2` [Example 252, 1-(2-(5-(3,3-difluoropyrrolidin-1-yl)pyrazolo[1,5-a]pyridine-3-carbonyl)-2-azaspiro[3.3]heptan-6-yl)-1-methyl-3-(5-(trifluoromethyl)pyridin-3-yl)urea] are 7.60 to 8.30 and above 8.30.
For the compound `COc1ccc(-c2ccc3c(C(=O)N4CC5(CC(N(C)C(=O)Nc6cncc(C(F)(F)F)c6)C5)C4)cnn3c2)cn1` [Example 253, 1-(2-(6-(6-methoxypyridin-3-yl)pyrazolo[1,5-a]pyridine-3-carbonyl)-2-azaspiro[3.3]heptan-6-yl)-1-methyl-3-(5-(trifluoromethyl)pyridin-3-yl)urea], the figures for the pKi on DDR2 and at DDR1 were 7.60 to 8.30 and above 8.30, respectively.
On the same counts, the results for `CN(C(=O)Nc1cc(I)ccn1)C1CC2(C1)CN(C(=O)c1cnn3ccn(C)c13)C2` [Example 254, 3-(4-iodopyridin-2-yl)-1-methyl-1-(2-(1-methyl-1H-imidazo[1,2-b]pyrazole-7-carbonyl)-2-azaspiro[3.3]heptan-6-yl)urea] are 7.60 to 8.30 and above 8.30.
With `CN(C(=O)Nc1cc(C(F)F)ccn1)C1CC2(C1)CN(C(=O)c1cnn3ccsc13)C2` [Example 255, 3-(4-(difluoromethyl)pyridin-2-yl)-1-methyl-1-(2-(pyrazolo[5,1-b]thiazole-7-carbonyl)-2-azaspiro[3.3]heptan-6-yl)urea], the figures for the pKi on DDR2 and at DDR1 were 7.60 to 8.30 and above 8.30, respectively.
On the same counts, the results for `COc1cc(C(F)(F)F)cc(NC(=O)N(C)C2CC3(C2)CN(C(=O)c2cnn4ccn(C)c24)C3)n1` [Example 256, 3-(6-methoxy-4-(trifluoromethyl)pyridin-2-yl)-1-methyl-1-(2-(1-methyl-1H-imidazo[1,2-b]pyrazole-7-carbonyl)-2-azaspiro[3.3]heptan-6-yl)urea] are 7.60 to 8.30 and above 8.30.
On the same counts, the results for `CN(C(=O)Nc1cc(C(F)(F)F)cc(C(F)(F)F)c1)C1CC2(C1)CN(C(=O)c1cnn3ccn(C)c13)C2` [Example 257, 3-(3,5-bis(trifluoromethyl)phenyl)-1-methyl-1-(2-(1-methyl-1H-imidazo[1,2-b]pyrazole-7-carbonyl)-2-azaspiro[3.3]heptan-6-yl)urea] are 7.60 to 8.30 and above 8.30.
On the same counts, the results for `Cc1nn(C)cc1-c1ccc2c(C(=O)N3CC4(CC(N(C)C(=O)Nc5cncc(C(F)(F)F)c5)C4)C3)cnn2c1` [Example 258, 1-(2-(6-(1,3-dimethyl-1H-pyrazol-4-yl)pyrazolo[1,5-a]pyridine-3-carbonyl)-2-azaspiro[3.3]heptan-6-yl)-1-methyl-3-(5-(trifluoromethyl)pyridin-3-yl)urea] are 7.60 to 8.30 and above 8.30.
`CN(C(=O)Nc1cc(C(F)(F)F)cnn1)C1CC2(C1)CN(C(=O)c1cnn3ccccc13)C2` [Example 259, 1-methyl-1-(2-(pyrazolo[1,5-a]pyridine-3-carbonyl)-2-azaspiro[3.3]heptan-6-yl)-3-(5-(trifluoromethyl)pyridazin-3-yl)urea]: the pKi at DDR2 is 7.00 to 7.60; at DDR1, above 8.30.
On the same counts, the results for `COc1ccc(C(F)(F)F)cc1NC(=O)N(C)C1CC2(C1)CN(C(=O)c1ncnc3[nH]ccc13)C2` [Example 260, 1-(2-(7H-pyrrolo[2,3-d]pyrimidine-4-carbonyl)-2-azaspiro[3.3]heptan-6-yl)-3-(2-methoxy-5-(trifluoromethyl)phenyl)-1-methylurea] are 7.60 to 8.30 and above 8.30.
On the same counts, the results for `Cc1c(-c2ccc3c(C(=O)N4CC5(CC(N(C)C(=O)Nc6cncc(C(F)(F)F)c6)C5)C4)cnn3c2)cnn1C` [Example 261, 1-(2-(6-(1,5-dimethyl-1H-pyrazol-4-yl)pyrazolo[1,5-a]pyridine-3-carbonyl)-2-azaspiro[3.3]heptan-6-yl)-1-methyl-3-(5-(trifluoromethyl)pyridin-3-yl)urea] are 7.60 to 8.30 and above 8.30.
On the same counts, the results for `COc1ncc(C(F)(F)F)cc1NC(=O)NC1CC2(C1)CN(C(=O)c1cnn3ccsc13)C2` [Example 262, 1-(2-methoxy-5-(trifluoromethyl)pyridin-3-yl)-3-(2-(pyrazolo[5,1-b]thiazole-7-carbonyl)-2-azaspiro[3.3]heptan-6-yl)urea] are 7.60 to 8.30 and above 8.30.
Take `CN(C(=O)Nc1cc(C(F)(F)F)ccn1)C1CC2(C1)CN(C(=O)c1ncnc3ccsc13)C2` [Example 263, 1-methyl-1-(2-(thieno[3,2-d]pyrimidine-4-carbonyl)-2-azaspiro[3.3]heptan-6-yl)-3-(4-(trifluoromethyl)pyridin-2-yl)urea]: the negative logarithm of the Ki (pKi) on DDR2 was 7.60 to 8.30; at DDR1, above 8.30.
On the same counts, the results for `CCc1ccc(C(F)(F)F)cc1NC(=O)N(C)C1CC2(C1)CN(C(=O)c1cnn3ccn(C)c13)C2` [Example 264, 3-(2-ethyl-5-(trifluoromethyl)phenyl)-1-methyl-1-(2-(1-methyl-1H-imidazo[1,2-b]pyrazole-7-carbonyl)-2-azaspiro[3.3]heptan-6-yl)urea] are 7.60 to 8.30 and above 8.30.
On the same counts, the results for `Cc1c(F)cc(NC(=O)N(C)C2CC3(C2)CN(C(=O)c2cnn4ccn(C)c24)C3)cc1C(F)(F)F` [Example 265, 3-(3-fluoro-4-methyl-5-(trifluoromethyl)phenyl)-1-methyl-1-(2-(1-methyl-1H-imidazo[1,2-b]pyrazole-7-carbonyl)-2-azaspiro[3.3]heptan-6-yl)urea] are above 8.30 and above 8.30.
For `CN(C(=O)Nc1cncc(C(F)(F)C(F)(F)F)c1)C1CC2(C1)CN(C(=O)c1cnn3ccn(C)c13)C2` [Example 266, 1-methyl-1-(2-(1-methyl-1H-imidazo[1,2-b]pyrazole-7-carbonyl)-2-azaspiro[3.3]heptan-6-yl)-3-(5-(perfluoroethyl)pyridin-3-yl)urea], the pKi was 7.60 to 8.30 at DDR2 and above 8.30 at DDR1.
On the same counts, the results for `CN(C(=O)Nc1cc(C(F)(F)F)cc(Cl)n1)C1CC2(C1)CN(C(=O)c1cnn3ccn(C)c13)C2` [Example 267, 3-(6-chloro-4-(trifluoromethyl)pyridin-2-yl)-1-methyl-1-(2-(1-methyl-1H-imidazo[1,2-b]pyrazole-7-carbonyl)-2-azaspiro[3.3]heptan-6-yl)urea] are above 8.30 and above 8.30.

In general, pKi refers to the negative decadic logarithm of the Ki, by convention in mol/L.
